Test results published in patent US20200399250A1, “Pyrimidine Derivatives as Tropomyosin Receptor Kinase A (TRKA) Inhibitors” (BIOMED X GMBH, priority 2017, published 2020).

Legend:
TrkA = TrkA (Homo sapiens, UniProt P04629); assay: KINOMEscan primary screen against TrkA; assay type: binding; details: % of control; for % Ctrl. TrkA @10 nM: 10 nM compound; for % Ctrl. TrkA @100 nM: 100 nM compound
Protocol: (§1) Compounds were initially tested in a primary screen against TrkA (at 10 and 100 nM) and AurA (at 100 nM and 1 μM) using the KINOMEscan technology from DiscoverX Corporation, Fremont, Calif., USA (https://www.discoverx.com/services/drug-discovery-development-services/kinase-profiling/kinomescan).
Results were reported as % of control (% Ctrl.=(test compound signal−positive control signal)/(DMSO signal−positive control signal). KINOMEscan is an active site-directed competition binding assay that quantitatively measures the ability of a compound to compete with an immobilized, active-site directed ligand.

AurA = target: T1, AurA (Homo sapiens, UniProt O14965); assay: KINOMEscan primary screen against AurA; assay type: binding; details: % of control; for % Ctrl. AurA @100 nM: 100 nM compound; for % Ctrl. AurA @1 μM: 1 μM compound
T1 sequence (O14965 1-403): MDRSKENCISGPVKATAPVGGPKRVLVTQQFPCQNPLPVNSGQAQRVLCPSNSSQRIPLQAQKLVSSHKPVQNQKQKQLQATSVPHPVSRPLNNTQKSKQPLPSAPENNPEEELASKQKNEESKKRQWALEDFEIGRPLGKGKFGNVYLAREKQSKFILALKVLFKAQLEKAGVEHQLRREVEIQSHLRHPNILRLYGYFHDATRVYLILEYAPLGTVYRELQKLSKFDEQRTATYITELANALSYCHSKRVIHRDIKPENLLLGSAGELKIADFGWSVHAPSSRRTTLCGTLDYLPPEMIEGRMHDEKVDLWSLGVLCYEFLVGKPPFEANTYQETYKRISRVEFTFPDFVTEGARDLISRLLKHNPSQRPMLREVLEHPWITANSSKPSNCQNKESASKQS
Protocol: as §1

Sequence of TrkA (P04629 33-796): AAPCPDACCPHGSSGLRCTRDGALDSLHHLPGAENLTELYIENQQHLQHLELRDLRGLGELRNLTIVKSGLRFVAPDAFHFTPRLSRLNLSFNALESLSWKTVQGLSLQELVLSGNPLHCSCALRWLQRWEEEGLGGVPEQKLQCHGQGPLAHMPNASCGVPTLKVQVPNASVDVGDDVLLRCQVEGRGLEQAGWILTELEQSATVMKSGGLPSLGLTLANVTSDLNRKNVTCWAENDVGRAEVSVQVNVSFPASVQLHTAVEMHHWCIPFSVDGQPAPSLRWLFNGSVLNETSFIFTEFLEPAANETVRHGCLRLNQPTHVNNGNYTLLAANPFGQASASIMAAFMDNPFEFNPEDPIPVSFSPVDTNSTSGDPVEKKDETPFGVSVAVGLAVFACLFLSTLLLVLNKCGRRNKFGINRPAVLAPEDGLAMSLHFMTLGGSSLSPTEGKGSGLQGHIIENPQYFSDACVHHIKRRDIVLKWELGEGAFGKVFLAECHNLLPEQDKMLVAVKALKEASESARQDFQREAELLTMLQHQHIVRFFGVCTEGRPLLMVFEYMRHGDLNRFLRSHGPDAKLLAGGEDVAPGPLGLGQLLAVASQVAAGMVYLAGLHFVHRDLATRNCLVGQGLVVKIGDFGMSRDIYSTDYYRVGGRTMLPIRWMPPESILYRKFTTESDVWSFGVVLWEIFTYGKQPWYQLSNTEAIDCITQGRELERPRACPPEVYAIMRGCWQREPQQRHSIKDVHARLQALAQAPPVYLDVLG

| SMILES | % Ctrl. TrkA @10 nM (TrkA) [% Ctrl.] | % Ctrl. TrkA @100 nM (TrkA) [% Ctrl.] | % Ctrl. AurA @100 nM (AurA) [% Ctrl.] | % Ctrl. AurA @1 μM (AurA) [% Ctrl.] |
| --- | --- | --- | --- | --- |
| Cc1ccc(C)c(Sc2nc(Nc3cc(C)[nH]n3)cc(N3CCN(C)CC3)n2)c1 [b1, 2-[(2,5-dimethylphenyl)sulfanyl]-N-(5-methyl-1H-pyrazol-3-yl)-6-(4-methylpiperazin-1-yl)pyrimidin-4-amine] | 80 | 11 | 7.3 | 0.5 |
| Cc1cc(Nc2cc(N3CCN(C)CC3)nc(SCc3ccc(C)c(C)c3)n2)n[nH]1 [b3, 2-{[(3,4-dimethylphenyl)methyl]sulfanyl}-N-(5-methyl-1H-pyrazol-3-yl)-6-(4-methylpiperazin-1-yl)pyrimidin-4-amine] | 53 | 11 | 46 | 4.5 |
| CN1CCN(c2cc(Nc3cc4ccccn4n3)nc(Sc3ccccc3)n2)CC1 [a3, 6-(4-methylpiperazin-1-yl)-2-(phenylsulfanyl)-N-(pyrazolo[1,5-a]pyridin-2-yl)pyrimidin-4-amine] | 93 | 29 | 87 | 76 |
| Cc1cc(Nc2cc(N3CCN(C)CC3)nc(SCc3cccc4ccccc34)n2)n[nH]1 [b6, N-(5-methyl-1H-pyrazol-3-yl)-6-(4-methylpiperazin-1-yl)-2-[(naphthalen-1-ylmethyl)sulfanyl]pyrimidin-4-amine] | 74 | 35 | 63 | 7.4 |
| Cc1ccc(Sc2nc(Nc3cc(C)[nH]n3)cc(N3CCN(C)CC3)n2)c(C)c1 [b9, 2-[(2,4-dimethylphenyl)sulfanyl]-N-(5-methyl-1H-pyrazol-3-yl)-6-(4-methylpiperazin-1-yl)pyrimidin-4-amine] | 77 | 24 | 51 | 3.8 |
| Cc1ccc(C)c(CSc2nc(Nc3cc(C)[nH]n3)cc(N3CCN(C)CC3)n2)c1 [b2, 2-{[(2,5-dimethylphenyl)methyl]sulfanyl}-N-(5-methyl-1H-pyrazol-3-yl)-6-(4-methylpiperazin-1-yl)pyrimidin-4-amine] | 93 | 31 | 54 | 9.4 |
| Cc1cccc(Sc2nc(Nc3cc(C)[nH]n3)cc(N3CCN(C)CC3)n2)c1 [b4, N-(5-methyl-1H-pyrazol-3-yl)-2-[(3-methylphenyl)sulfanyl]-6-(4-methylpiperazin-1-yl)pyrimidin-4-amine] | 50 | 6.7 | 2.6 | 0.1 |
| CN1CCN(c2cc(Nc3cc(C(C)(C)C)[nH]n3)nc(Sc3ccccc3)n2)CC1 [a8, N-(5-tert-butyl-1H-pyrazol-3-yl)-6-(4-methylpiperazin-1-yl)-2-(phenylsulfanyl) pyrimidin-4-amine] | 69 | 18 | 100 | 79 |
| Cc1cc(Nc2cc(N3CCN(C)CC3)nc(Sc3cccc(C(F)(F)F)c3)n2)n[nH]1 [b5, N-(5-methyl-1H-pyrazol-3-yl)-6-(4-methylpiperazin-1-yl)-2-{[3-(trifluoromethyl)phenyl]sulfanyl}pyrimidin-4-amine] | 90 | 32 | 36 | 2.4 |
